# Reference: US20130029983A1, “AMINOTHIENOPYRIDAZINE INHIBITORS OF TAU ASSEMBLY” (priority 2009, published 2013)
# Legend:
# K18PL tau = molecular target: T1, K18PL tau (Homo sapiens, UniProt P10636, P618L); assay: K18PL tau centrifugation (sedimentation) assay, SDS-PAGE densitometry; type: biochemical; details: for Emax: SDS-PAGE of soluble and insoluble fractions after centrifugation, read-out: K18PL Sed. Assay, maximal percent inhibition of K18PL fibrillization
# T1 construct: (K18PL; amino acids 244-369); made in house
# Summary of the method: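 Heparin-induced fibrillization of K18PL tau in sodium acetate buffer with test compound; mixtures were centrifuged and soluble versus insoluble K18PL quantified by SDS-PAGE densitometry. A repeat run centrifuged DMSO- and compound-treated mixtures for 30 min at time zero to remove pelletable material before incubation.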
# [1] = Brain and plasma drug levels 1 h after i.p. administration (LC-MS/MS); type: in vivo; details: mice, 1 h after i.p. 5 mg/Kg
# Procedure: Test compounds underwent preliminary evaluations of brain penetration, in which 5 mg/Kg of each compound was administered intraperitoneally (i.p.) to a group of three normal mice; drug levels in brain and plasma were determined at a single time-point (1 h) by LC-MS/MS using pre-validated calibration curves. […] However, both esters appeared to have relatively short half-lives in plasma, as indicated by the limited amount of parent drug detected after 1 h from administration of the compounds. […] CNDR-51362 was selected for full PK analysis in which brain and plasma drug levels were determined at six time points (i.e., 30 min, 1 h, 2 h, 4 h, 8 h, and 16 h). The results from this experiment, illustrated in FIG. 6A, confirmed that the total B/P exposure ratio over 16 h is 1.6. […] Finally, in order to investigate the potential for ATPZ congeners to be orally administered, we evaluated brain and plasma level of CNDR-51362 and CNDR-51349 after oral administration of 5 mg/Kg.
# Brain tissue was homogenized in 10 mM ammonium acetate, pH 5.7 (1:2; w/v) using a handheld sonic homogenizer. Plasma was obtained from blood that was collected into a 1.5 mL tube containing 0.5M EDTA solution and subjected to centrifugation for 10 min. at 4500 g at 4° C. Aliquots (50 μL) of brain homogenate or plasma were mixed with 0.2 mL of acetonitrile, centrifuged at 15,000 g, and the resulting supernatants were used for subsequent LC-MS/MS analysis. The LC-MS/MS system was comprised of an Aquity HPLC and a TQ MS that was controlled using MassLynx software (Waters Corporation, Milford, Mass., USA). Compounds were detected using multiple reaction monitoring (MRM) of their specific collision-induced ion transitions. Samples (5 μL) were separated on an Aquity BEH C18 column (1.7 μm, 2.1×50 mm) at 35° C. Operation was in positive electrospray ionization mode, with mobile phase A of 0.1% (v/v) formic acid, and B of either acetonitrile or methanol with 0.1% (v/v) formic acid at a flow rate of 0.6 mL/min using a gradient from 5% to 95% B over two min., followed by wash and re-equilibration steps. The MS was operated with a desolvation temperature of 450° C. and a source temperature of 150° C. Desolvation and source nitrogen gas flows were 900 L/hr and 50 L/hr, respectively. Source and MS/MS voltages were optimized for each compound using the MassLynx auto tune utility. Standard curves were generated for each compound from brain homogenate and plasma samples that had compound added at 4, 40, 400 and 4000 ng/mL and extracted as above. Peak areas were plotted against concentration and a 1/x weighted linear regression curve was used to quantify the tissue-derived samples using the average peak area from triplicate injections.
# [2] = Turbidimetric solubility in fibrillization buffer; type: physicochemical; details: 100 mM NaOAc pH 7.0 fibrillization buffer, 1% DMSO
# Procedure: Compounds were serially diluted in DMSO to achieve a 2.5 fold dilution series from 20 mM down 8 points to […] on a 384-well master plate (Costar 3672). Aliquots (2 μL) were transferred to a clear 96-well assay plate (Fisher 12-565-501) containing 198 μL fibrillization buffer (100 mM NaOAc pH 7.0) for a 100-fold dilution (200 μM down to 0.3 μM). The plate was incubated with agitation for 2.5 h, and the absorbance at 550, 600, 650 and 700 nm was measured on a Spectramax M5 spectrophotometer. DMSO (1%) in fibrillization buffer served as a control that was subtracted from each data point. The absorbances were averaged and the concentration at which the average absorbance rose above 0.03 AU was an indication of insoluble compound, with solubility limits reported as the previous concentration in the dilution series.
# full-length tau (tau40) = molecular target: T2, full-length tau (tau40) (Homo sapiens, UniProt P10636); assay: Tau40 fibrillization sedimentation assay; type: biochemical; details: SDS-PAGE of soluble and insoluble fractions after centrifugation; for Emax: read-out: Tau40 Sed. Assay, maximal percent inhibition of tau40 fibrillization
# T2 construct: Full length tau (Tau40; amino acids 1-441); made in house
# Procedure: The determination of compound-induced effects on the amount of tau that remains soluble upon centrifugation, and EM visualization of tau species following incubation with test compounds, were as previously described (Crowe, A., Ballatore, C., Hyde, E., Trojanowski, J. Q., and Lee, V. M. Y. (2007) Biochemical and Biophysical Research Communications 358, 1-6). […]
# T1 sequence (P10636 561-686 P618L): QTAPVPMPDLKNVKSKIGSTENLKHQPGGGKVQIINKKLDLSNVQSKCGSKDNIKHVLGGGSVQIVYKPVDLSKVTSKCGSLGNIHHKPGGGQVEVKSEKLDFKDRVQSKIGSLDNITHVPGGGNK
# T2 sequence (P10636 1-441 isoform P10636-8): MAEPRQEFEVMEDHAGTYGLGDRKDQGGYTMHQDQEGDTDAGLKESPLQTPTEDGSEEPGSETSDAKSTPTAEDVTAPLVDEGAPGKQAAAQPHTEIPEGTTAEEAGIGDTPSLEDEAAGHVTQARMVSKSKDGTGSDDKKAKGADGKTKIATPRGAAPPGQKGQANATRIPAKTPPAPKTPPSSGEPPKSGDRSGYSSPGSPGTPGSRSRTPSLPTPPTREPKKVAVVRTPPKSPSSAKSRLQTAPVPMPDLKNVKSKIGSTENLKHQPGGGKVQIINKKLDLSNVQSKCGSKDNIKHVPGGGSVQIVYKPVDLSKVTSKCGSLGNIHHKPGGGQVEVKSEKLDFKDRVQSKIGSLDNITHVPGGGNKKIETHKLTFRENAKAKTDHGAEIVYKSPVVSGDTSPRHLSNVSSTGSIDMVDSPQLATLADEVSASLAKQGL
Emax (K18PL tau) [%],"B/P, ratio between brain/plasma drug level [1]",Water Solubility [2] [µM],"Tau40 Sed. Assay, maximal percent inhibition of tau40 fibrillization (full-length tau (tau40)) [%]",Emax (full-length tau (tau40)) [%],"Tau Cent. Assay % Soluble (K18PL tau; Table 3, K18PL tau centrifugation assay) [%]","B/P, ratio between brain/plasma drug level ([1]; 5 mg/kg)","B/P, ratio between brain/plasma drug level ([1]; listed as CNDR-51346, 5 mg/kg)",Structure (SMILES)
69,1.6,32,58,50 to 60,,,,"Nc1scc2c(C(=O)NC3CC3)nn(-c3ccc(Cl)cc3)c(=O)c12 [CNDR-51362, 5-Amino-3-(4-chlorophenyl)-N-cyclopropyl-4-oxo-3,4-dihydrothieno[3,4-d]pyridazine-1-carboxamide]"
70,,13,48,50 to 60,62,3.3,comparatively higher B/P ratio,"CCOC(=O)c1nn(-c2ccc(Cl)cc2)c(=O)c2c(N)scc12 [Compound 17, Ethyl 5-amino-3-(4-chlorophenyl)-4-oxo-3,4-dihydrothieno[3,4-d]pyridazine-1-carboxylate]"
